# Laboratory results reported in patent publication US20050197350A1, “Novel quinoline, tetrahydroquinazoline, and pyrimidine derivatives and methods of treatment related to the use thereof” (TAISHO PHARMACEUTICAL CO., LTD., priority 2003, published 2005).
# Where two headings read alike, the source gives them in different places.
# Test system: MCH receptors
# Test: MCH receptor activity class (method not given)
# [1] = class by percent of control at 10^-7 M or IC50
# [2] = activity class 1-3: percent of control at 10^-7 M or IC50
# [3] = class 1-3 by percent of control at 10^-7 M or IC50
# [4] = class by percent of control at 10^−7 M or IC50
# [5] = activity class per percent of control at 10^-7 M or IC50
# [6] = MCH receptor, class by percent of control at 10^-7 M or IC50
smiles,measurement,setting,value
COc1ccc(CNC(=O)N[C@H]2CC[C@@H](Nc3nc4c(c(N(C)C)n3)CCCC4)CC2)cc1 [compound 1835],class,[1],3 (Class 3 The value of percent of control at 10^−7 M was more than 60% or the value of IC50 was more than 200 nM.)
CN(C)c1ccnc(N[C@H]2CC[C@@H](NC(=O)c3cc(F)c(F)c(F)c3F)CC2)n1 [compound 346],class,[1],3 (Class 3 The value of percent of control at 10^−7 M was more than 60% or the value of IC50 was more than 200 nM.)
COc1cc(COC(=O)NC[C@H]2CC[C@@H](Nc3nc4c(c(N(C)C)n3)CCCC4)CC2)c([N+](=O)[O-])cc1OC [compound 1601],class,[2],3 (Class 3 The value of percent of control at 10^−7 M was more than 60% or the value of IC50 was more than 200 nM.)
"CN(C)c1ccnc(N[C@H]2CC[C@@H](CNC(=O)c3cccc4c3-c3ccccc3C4=O)CC2)n1 [compound 444, N-[(cis-4-{[4-(dimethylamino)pyrimidin-2-yl]amino}cyclohexyl)methyl]-9-oxo-9H-fluorene-4-carboxamide]",class,[3],2 (Class 2: The value of percent of control at 10^−7 M was from 40% to 60% or the value of IC′50 was from 50 nM to 200 nM.)
CN(C)c1nc(N[C@H]2CC[C@@H](CNC(=O)CC3CCCC3)CC2)nc2c1CCCC2 [compound 637],class,[1],3 (Class 3 The value of percent of control at 10^−7 M was more than 60% or the value of IC50 was more than 200 nM.)
CN(C)c1ccnc(N[C@H]2CC[C@@H](NC(=O)Nc3ccc(Br)cc3Br)CC2)n1 [compound 2229],class,[1],3 (Class 3 The value of percent of control at 10^−7 M was more than 60% or the value of IC50 was more than 200 nM.)
Cc1cnc(N[C@H]2CC[C@@H](NC(=O)c3ccc(C(F)(F)F)c(F)c3)CC2)nc1N(C)C [compound 2931],class,[4],3 (Class 3 The value of percent of control at 10^−7 M was more than 60% or the value of IC50 was more than 200 nM.)
CN(C)c1cc(N[C@H]2CC[C@@H](NC(=O)Cc3cccc(Oc4ccccc4)c3)CC2)nc2ccccc12 [compound 727],class,[1],3 (Class 3 The value of percent of control at 10^−7 M was more than 60% or the value of IC50 was more than 200 nM.)
CN(C)c1nc(N[C@H]2CC[C@@H](NC(=O)CCC(=O)c3cccs3)CC2)nc2c1CCCC2 [compound 1021],class,[5],3 (Class 3 The value of percent of control at 10^−7 M was more than 60% or the value of IC50 was more than 200 nM.)
CN(C)c1nc(N[C@H]2CC[C@@H](NC(=S)Nc3cc(Cl)c(Cl)cc3Cl)CC2)nc2c1CCCC2 [compound 2000],class,[6],3 (Class 3 The value of percent of control at 10^−7 M was more than 60% or the value of IC50 was more than 200 nM.)
Cc1cc(C(=O)N[C@H]2CC[C@@H](CNc3ncc(C)c(N(C)C)n3)CC2)ccc1F [compound 2718],class,[4],2 (Class 2: The value of percent of control at 10^−7 M was from 40% to 60% or the value of IC′50 was from 50 nM to 200 nM.)
CN(C)c1ccnc(N[C@H]2CC[C@@H](CNC(=O)c3c(Cl)cccc3Cl)CC2)n1 [compound 439],class,[3],3 (Class 3 The value of percent of control at 10^−7 M was more than 60% or the value of IC50 was more than 200 nM.)
CN(C)c1cc(N[C@H]2CC[C@@H](NC(=O)NC3C[C@H]3c3ccccc3)CC2)nc2ccccc12 (stereo partly drawn) [compound 2131],class,[1],3 (Class 3 The value of percent of control at 10^−7 M was more than 60% or the value of IC50 was more than 200 nM.)
CN(C)c1nc(N[C@H]2CC[C@@H](NC(=S)Nc3ccc(OC(F)(F)F)cc3)CC2)nc2c1CCCC2 [compound 1988],class,[6],3 (Class 3 The value of percent of control at 10^−7 M was more than 60% or the value of IC50 was more than 200 nM.)
CN(C)c1cc(N[C@H]2CC[C@@H](NC(=O)c3cc(C(F)(F)F)ccc3F)CC2)nc2ccccc12 [compound 65],class,[6],3 (Class 3 The value of percent of control at 10^−7 M was more than 60% or the value of IC50 was more than 200 nM.)
CN(C)c1nc(N[C@H]2CC[C@@H](NC(=O)Nc3cccc4ccccc34)CC2)nc2c1CCCC2 [compound 1700],class,[2],2 (Class 2: The value of percent of control at 10^−7 M was from 40% to 60% or the value of IC′50 was from 50 nM to 200 nM.)
CCSc1ncccc1C(=O)N[C@H]1CC[C@@H](Nc2cc(N(C)C)c3ccccc3n2)CC1 [compound 36],class,[6],3 (Class 3 The value of percent of control at 10^−7 M was more than 60% or the value of IC50 was more than 200 nM.)
C[C@H](NC(=O)c1ccccc1C(=O)N[C@H]1CC[C@@H](Nc2cc(N(C)C)c3ccccc3n2)CC1)c1ccccc1 [compound 758],class,[1],3 (Class 3 The value of percent of control at 10^−7 M was more than 60% or the value of IC50 was more than 200 nM.)
COc1cc(CNC[C@H]2CC[C@@H](Nc3cc(N(C)C)c4ccccc4n3)CC2)cc(I)c1O [compound 1139],class,[5],3 (Class 3 The value of percent of control at 10^−7 M was more than 60% or the value of IC50 was more than 200 nM.)
COC(=O)c1cccc(NC(=S)N[C@H]2CC[C@@H](Nc3cc(N(C)C)c4ccccc4n3)CC2)c1 [compound 2282],class,[1],3 (Class 3 The value of percent of control at 10^−7 M was more than 60% or the value of IC50 was more than 200 nM.)
"CSc1sc(C(=O)N[C@H]2CC[C@@H](Nc3nccc(N(C)C)n3)CC2)c(Cl)c1S(=O)(=O)C(C)C [compound 904, 3-chloro-N-(cis-4-{[4-(dimethylamino)pyrimidin-2-yl]amino}cyclohexyl)-4-(isopropylsulfonyl)-5-(methylthio)thiophene-2-carboxamide]",class,[1],2 (Class 2: The value of percent of control at 10^−7 M was from 40% to 60% or the value of IC′50 was from 50 nM to 200 nM.)
CN(C)c1nc(N[C@H]2CC[C@@H](NC(=O)Cc3c[nH]c4ccc(OCc5ccccc5)cc34)CC2)nc2c1CCCC2 [compound 1024],class,[5],3 (Class 3 The value of percent of control at 10^−7 M was more than 60% or the value of IC50 was more than 200 nM.)
CC(NC(=O)N[C@H]1CC[C@@H](Nc2cc(N(C)C)c3ccccc3n2)CC1)c1cccc2ccccc12 (relative stereo) [compound 2134],class,[1],1 (Class 1: The value of percent of control at 10^−7 M was less than 40% or the value of IC50 was less than 50 nM.)
CN(C)c1cc(N[C@H]2CC[C@@H](CNC(=O)c3cc(F)c(Cl)cc3Cl)CC2)nc2ccccc12 [compound 166],class,[6],3 (Class 3 The value of percent of control at 10^−7 M was more than 60% or the value of IC50 was more than 200 nM.)
C=CCOc1ccccc1CNC[C@H]1CC[C@@H](Nc2nccc(N(C)C)n2)CC1 [compound 1298],class,[1],1 (Class 1: The value of percent of control at 10^−7 M was less than 40% or the value of IC50 was less than 50 nM.)
COC(C(=O)N[C@H]1CC[C@@H](Nc2nc3c(c(N(C)C)n2)CCCC3)CC1)c1ccccc1 (relative stereo) [compound 1052],class,[5],2 (Class 2: The value of percent of control at 10^−7 M was from 40% to 60% or the value of IC′50 was from 50 nM to 200 nM.)
CN(C)c1nc(N[C@H]2CC[C@@H](NC(=O)[C@H](CCCCNC(=O)c3ccccc3)NC(=O)c3ccccc3)CC2)nc2c1CCCC2 (relative stereo) [compound 980],class,[5],2 (Class 2: The value of percent of control at 10^−7 M was from 40% to 60% or the value of IC′50 was from 50 nM to 200 nM.)
CN(C)c1nc(N[C@H]2CC[C@@H](NC(=S)Nc3ccc(-c4nc5c6ccccc6c6ccccc6c5o4)cc3)CC2)nc2c1CCCC2 [compound 2075],class,[6],3 (Class 3 The value of percent of control at 10^−7 M was more than 60% or the value of IC50 was more than 200 nM.)
Cc1cc(CN[C@H]2CC[C@@H](Nc3cc(N(C)C)c4ccccc4n3)CC2)c(C)n1-c1ccccc1 [compound 1109],class,[5],3 (Class 3 The value of percent of control at 10^−7 M was more than 60% or the value of IC50 was more than 200 nM.)
"Cc1cnc(N[C@H]2CC[C@@H](NC(=O)c3cccnc3Oc3cccc(Cl)c3)CC2)nc1N(C)C [compound 2893, 2-(3-chlorophenoxy)-N-(cis-4-{[4-(dimethylamino)-5-methylpyrimidin-2-yl]amino}cyclohexyl)nicotinamide]",class,[4],1 (Class 1: The value of percent of control at 10^−7 M was less than 40% or the value of IC50 was less than 50 nM.)
CN(C)c1nc(NC2CCC(NC(=O)OCc3ccccc3)CC2)nc2c1CCCC2 (stereo not drawn) [compound 491],class,[3],3 (Class 3 The value of percent of control at 10^−7 M was more than 60% or the value of IC50 was more than 200 nM.)
COc1cc(NC(=O)N[C@H]2CC[C@@H](Nc3nc4c(c(N(C)C)n3)CCCC4)CC2)cc(OC)c1OC [compound 1719],class,[1],1 (Class 1: The value of percent of control at 10^−7 M was less than 40% or the value of IC50 was less than 50 nM.)
CN(C)c1cc(N[C@H]2CC[C@@H](CNCc3ccccc3C#N)CC2)nc2ccccc12 [compound 1147],class,[5],3 (Class 3 The value of percent of control at 10^−7 M was more than 60% or the value of IC50 was more than 200 nM.)
Cc1cc(C)c(NC(=O)Nc2ccc(OC(F)(F)F)cc2)c(C(=O)N[C@H]2CC[C@@H](Nc3nccc(N(C)C)n3)CC2)c1 [compound 857],class,[1],3 (Class 3 The value of percent of control at 10^−7 M was more than 60% or the value of IC50 was more than 200 nM.)
CN(C)c1ccnc(N[C@H]2CC[C@@H](CNC(=O)c3cccs3)CC2)n1 [compound 397],class,[1],3 (Class 3 The value of percent of control at 10^−7 M was more than 60% or the value of IC50 was more than 200 nM.)
Cc1ccc(CCNC(=S)N[C@H]2CC[C@@H](Nc3nc4c(c(N(C)C)n3)CCCC4)CC2)cc1 [compound 2052],class,[6],3 (Class 3 The value of percent of control at 10^−7 M was more than 60% or the value of IC50 was more than 200 nM.)
CC(NC(=O)NC1CCC(Nc2nc3c(c(N(C)C)n2)CCCC3)CC1)c1cccc2ccccc12 (stereo not drawn) [compound 1842],class,[1],3 (Class 3 The value of percent of control at 10^−7 M was more than 60% or the value of IC50 was more than 200 nM.)
"Cc1cc(N(C)C)nc(N[C@H]2CC[C@@H](NC(=O)c3ccc(Cl)cc3)CC2)n1 [Example 2566, 4-chloro-N-(cis-4-{[4-(dimethylamino)-6-methylpyrimidin-2-yl]amino}cyclohexyl)benzamide]",class,,1
CN(C)c1nc(N[C@H]2CC[C@@H](NC(=S)Nc3ccc(F)c(F)c3F)CC2)nc2c1CCCC2 [compound 1970],class,[6],3 (Class 3 The value of percent of control at 10^−7 M was more than 60% or the value of IC50 was more than 200 nM.)
